Data from article PMC5524215 (Journal of clinical pharmacology, 2016).
Like-named read-outs stand apart in the source and are kept apart here. Where a SMILES comes first, the peptide text is derived from it.

Columns and labels:
[1] = in vivo, iv
[2] = Safety and tolerability in healthy adult subjects; details: healthy adults, single 0.01-1.0 mg/kg and repeated 1 mg/kg i.v.
[3] = murine pharmacokinetics; cited from earlier work
[4] = rodent, GLP, 5 mg/kg/dose four times per day (20 mg/kg/day) for 14 days; cited from earlier work
[5] = Single ascending dose pharmacokinetics of intravenous CN-105 in healthy adults
[6] = beagle, GLP, 5 mg/kg/dose four times per day (20 mg/kg/day) for 14 days; cited from earlier work
[7] = Repeated dose pharmacokinetics of intravenous CN-105; format: in vivo, human; details: for Ratio 2/1: AUCTAU2/AUCTAU1, repeated 1 mg/kg i.v. infusions over 30 min; for Ratio 13/1: AUCTAU13/AUCTAU1, repeated 1 mg/kg i.v. infusions over 30 min; for AUCTAU1 / AUCTAU2 / AUCTAU13: repeated 1 mg/kg i.v. infusions over 30 min; for AUCTAU2: dose 2; for AUCTAU13: dose 13
[8] = healthy adults, 1 mg/kg i.v. every 6 h for 72 h

`CC(=O)N[C@H](C(=O)N[C@@H](CO)C(=O)N[C@@H](CCCNC(=N)N)C(=O)N[C@@H](CCCNC(=N)N)C(=O)N[C@@H](CCCNC(=N)N)C(N)=O)C(C)C` [CN-105] (Ac-VSRRR-NH2; N-terminus and C-terminus assumed) showed a T1/2 ([1]; 0.01 mg/kg) of 2.3 ± 0.5, a T1/2 ([1]; 0.03 mg/kg) of 2.4 ± 0.5 and a T1/2 ([1]; 0.1 mg/kg) of 3.3 ± 0.6. The T1/2 ([1]; 0.3 mg/kg) was 3.6 ± .4, the T1/2 ([1]; 1 mg/kg) was 3.5 ± 0.3 and the “changes in serial ECG, vital signs or clinical laboratory tests” value [2] was “No concerning changes were observed”. For the same compound, the “half-life predicted by animal modeling” value [3] was 0.5 h, the “tolerability of repeated intravenous administration” value [4] was “well-tolerated” and the “observed half-life at higher doses” value ([5]; healthy adults, i.v., higher doses) was 3.6 h. It also gave a half-life ([5]; human, plasma, iv) of 3.5 h, an AUC(0-inf) ([5]; human, plasma, iv, 0.01 mg/kg) of 95.9 ± 20.2 ng·h/mL and a Cmax ([5]; human, plasma, iv, 0.01 mg/kg) of 35.7 ± 10.9 ng/mL. It also gave a Vd ([5]; human, plasma, iv, 0.01 mg/kg) of 29.8 ± 3.2 L, a clearance ([5]; human, plasma, iv, 0.01 mg/kg) of 150 mL/min and an AUC(0-inf) ([5]; human, plasma, iv, 0.03 mg/kg) of 281 ± 39.6 ng·h/mL. It also gave a Cmax ([5]; human, plasma, iv, 0.03 mg/kg) of 108 ± 25.5 ng/mL, a Vd ([5]; human, plasma, iv, 0.03 mg/kg) of 30.4 ± 8 L and a clearance ([5]; human, plasma, iv, 0.03 mg/kg) of 150 mL/min. The AUC(0-inf) ([5]; human, plasma, iv, 0.1 mg/kg) was 1130 ± 194 ng·h/mL, the Cmax ([5]; human, plasma, iv, 0.1 mg/kg) was 408 ± 129 ng/mL and the Vd ([5]; human, plasma, iv, 0.1 mg/kg) was 38.9 ± 12 L. For the same compound, the clearance ([5]; human, plasma, iv, 0.1 mg/kg) was 137 mL/min, the AUC(0-inf) ([5]; human, plasma, iv, 0.3 mg/kg) was 2670 ± 272 ng·h/mL and the Cmax ([5]; human, plasma, iv, 0.3 mg/kg) was 966 ± 209 ng/mL. For the same compound, the Vd ([5]; human, plasma, iv, 0.3 mg/kg) was 45.6 ± 11.2 L, the clearance ([5]; human, plasma, iv, 0.3 mg/kg) was 147 mL/min and the AUC(0-inf) ([5]; human, plasma, iv, 1 mg/kg) was 9550 ± 1280 ng·h/mL. The Cmax ([5]; human, plasma, iv, 1 mg/kg) was 3940 ± 507 ng/mL, the Vd ([5]; human, plasma, iv, 1 mg/kg) was 38.4 ± 8.1 L and the clearance ([5]; human, plasma, iv, 1 mg/kg) was 128 mL/min. The “tolerability of repeated intravenous administration” value [6] was “well-tolerated”, the “accumulation on repeated dosing” value ([7]; 1 mg/kg i.v. every 6 h for 72 h, judged by AUCTAU ratios between time points) was “no significant accumulation” and the “Ratio 2/1” value ([7]; geometric mean) was 1.1. The “Ratio 2/1” value ([7]; mean of subjects) was 1.1, the “Ratio 2/1” value ([7]; median) was 1.1 and the “Ratio 13/1” value ([7]; geometric mean) was 1.2. The “Ratio 13/1” value ([7]; mean of subjects) was 1.2, the “Ratio 13/1” value ([7]; median) was 1.3 and the “time at which trough concentrations reached a stable plateau” value [7, 8] was no more than 20 h. The “time to steady state” value [7, 8] was no more than 24 h, the half-life ([7]; human, plasma, iv, 1 mg/kg) was 3.6 h and the AUC(0-t) ([7]; human, plasma, iv, 1 mg/kg, AUCTAU1, repeated 1 mg/kg i.v. infusions over 30 min, dose 1, geometric mean) was 9540 ng·h/mL. For the same compound, the AUCTAU1 ([7]; dose 1, maximum among subjects) was 11431.3, the AUCTAU1 ([7]; dose 1, median) was 9911.7 and the AUCTAU1 ([7]; dose 1, minimum among subjects) was 7425.1. For the same compound, the AUCTAU2 ([7]; geometric mean) was 10506.5, the AUCTAU2 ([7]; maximum among subjects) was 12581.6 and the AUCTAU2 ([7]; median) was 10448.8. It also gave an AUCTAU2 ([7]; minimum among subjects) of 8990.5, an AUCTAU13 ([7]; geometric mean) of 11328.6 and an AUCTAU13 ([7]; maximum among subjects) of 14203.2. It also gave an AUCTAU13 ([7]; median) of 11600.4 and an AUCTAU13 ([7]; minimum among subjects) of 9382.1.
